Assay results from ChEMBL document CHEMBL1143204, “Syntheses and in vitro evaluation of arylsulfone-based MMP inhibitors with heterocycle-derived zinc-binding groups (ZBGs)” (Bioorg Med Chem Lett, 2008).

The molecules below were run against Collagenase 3 (Homo sapiens, UniProt P45452) (assay: Inhibition of MMP13).

SMILES	IC50
COc1ccc(Oc2ccc(S(=O)(=O)Cc3cccn(O)c3=O)cc2)cc1	13.4 nM
O=c1c(O)cccn1CS(=O)(=O)c1ccc(Oc2ccc(OC(F)(F)F)cc2)cc1	7.3 nM
O=C1[C@H](CS(=O)(=O)c2ccc(Oc3ccccc3)cc2)NCCCN1O	11 nM

The molecules below were run against T1, Interstitial collagenase (Homo sapiens, UniProt P03956) (assay: Inhibition of MMP1).
T1 sequence (P03956 whole entry): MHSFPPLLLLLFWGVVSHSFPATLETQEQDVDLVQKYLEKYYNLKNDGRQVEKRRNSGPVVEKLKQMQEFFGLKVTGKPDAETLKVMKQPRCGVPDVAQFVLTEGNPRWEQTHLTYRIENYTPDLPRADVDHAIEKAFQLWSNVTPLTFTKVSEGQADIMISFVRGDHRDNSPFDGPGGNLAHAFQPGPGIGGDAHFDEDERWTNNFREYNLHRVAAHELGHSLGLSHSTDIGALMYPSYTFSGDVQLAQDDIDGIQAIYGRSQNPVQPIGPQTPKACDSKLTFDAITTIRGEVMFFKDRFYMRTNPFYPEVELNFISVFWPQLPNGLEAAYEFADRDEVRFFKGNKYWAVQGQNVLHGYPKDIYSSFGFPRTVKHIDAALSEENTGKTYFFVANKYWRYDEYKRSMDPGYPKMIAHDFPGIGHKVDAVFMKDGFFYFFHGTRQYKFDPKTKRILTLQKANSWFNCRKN

SMILES	IC50
COc1ccc(Oc2ccc(S(=O)(=O)Cc3cccn(O)c3=O)cc2)cc1	> 1000 nM
O=c1c(O)cccn1CS(=O)(=O)c1ccc(Oc2ccc(OC(F)(F)F)cc2)cc1	> 1000 nM
O=C1[C@H](CS(=O)(=O)c2ccc(Oc3ccccc3)cc2)NCCCN1O	> 1000 nM

Each molecule was assayed against Matrix metalloproteinase-9 (Homo sapiens, UniProt P14780) (assay: Inhibition of MMP9).
Chain of Matrix metalloproteinase-9 (P14780 whole entry): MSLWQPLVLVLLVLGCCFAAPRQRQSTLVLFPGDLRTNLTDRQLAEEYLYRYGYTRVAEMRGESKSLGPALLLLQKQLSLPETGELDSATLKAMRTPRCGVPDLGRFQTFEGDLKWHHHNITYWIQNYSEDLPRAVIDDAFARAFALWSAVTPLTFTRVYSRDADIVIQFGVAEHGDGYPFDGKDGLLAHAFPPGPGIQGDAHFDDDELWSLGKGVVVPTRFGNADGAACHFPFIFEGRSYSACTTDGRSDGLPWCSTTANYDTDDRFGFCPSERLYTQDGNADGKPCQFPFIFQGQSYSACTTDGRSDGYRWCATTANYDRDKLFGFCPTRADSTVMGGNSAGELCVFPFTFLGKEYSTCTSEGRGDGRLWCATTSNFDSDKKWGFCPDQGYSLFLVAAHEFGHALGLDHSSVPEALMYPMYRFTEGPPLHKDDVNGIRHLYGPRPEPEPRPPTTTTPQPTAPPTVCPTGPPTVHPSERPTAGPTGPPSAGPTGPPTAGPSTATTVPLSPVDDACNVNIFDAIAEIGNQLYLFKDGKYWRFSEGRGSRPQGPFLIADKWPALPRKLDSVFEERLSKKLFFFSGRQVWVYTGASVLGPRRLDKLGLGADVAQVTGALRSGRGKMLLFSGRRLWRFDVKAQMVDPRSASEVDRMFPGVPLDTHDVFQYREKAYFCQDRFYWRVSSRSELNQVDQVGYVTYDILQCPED

SMILES	IC50
COc1ccc(Oc2ccc(S(=O)(=O)C3CCCCCN(O)C3=O)cc2)cc1 (stereo unspecified)	> 1000 nM
COc1ccc(-c2ccc(S(=O)(=O)C3CCCCN(O)C3=O)cc2)cc1 (stereo unspecified)	> 1000 nM
O=c1c(O)cccn1CS(=O)(=O)c1ccc(Oc2ccc(OC(F)(F)F)cc2)cc1	4 nM
O=C1[C@H](CS(=O)(=O)c2ccc(Oc3ccccc3)cc2)NCCCN1O	21.1 nM
O=C1C(S(=O)(=O)c2ccc(Oc3ccc(OC(F)(F)F)cc3)cc2)CCCCN1O (stereo unspecified)	21.5 nM

More lines, now with the values ahead:

IC50	SMILES
13.9 nM	COc1ccc(Oc2ccc(S(=O)(=O)Cn3cccc(O)c3=O)s2)cc1
16.4 nM	O=c1c(O)cccn1CS(=O)(=O)c1ccc(Oc2ccc(Cl)cc2)cc1
> 1000 nM	COc1ccc(-c2ccc(S(=O)(=O)Cn3cccc(O)c3=O)cc2)cc1
809 nM	Cc1ccc(S(=O)(=O)Cn2cccc(O)c2=O)cc1

What follows are molecules tested against 72 kDa type IV collagenase (Homo sapiens, UniProt P08253) (assay: Inhibition of MMP2).
Chain of 72 kDa type IV collagenase (P08253 whole entry): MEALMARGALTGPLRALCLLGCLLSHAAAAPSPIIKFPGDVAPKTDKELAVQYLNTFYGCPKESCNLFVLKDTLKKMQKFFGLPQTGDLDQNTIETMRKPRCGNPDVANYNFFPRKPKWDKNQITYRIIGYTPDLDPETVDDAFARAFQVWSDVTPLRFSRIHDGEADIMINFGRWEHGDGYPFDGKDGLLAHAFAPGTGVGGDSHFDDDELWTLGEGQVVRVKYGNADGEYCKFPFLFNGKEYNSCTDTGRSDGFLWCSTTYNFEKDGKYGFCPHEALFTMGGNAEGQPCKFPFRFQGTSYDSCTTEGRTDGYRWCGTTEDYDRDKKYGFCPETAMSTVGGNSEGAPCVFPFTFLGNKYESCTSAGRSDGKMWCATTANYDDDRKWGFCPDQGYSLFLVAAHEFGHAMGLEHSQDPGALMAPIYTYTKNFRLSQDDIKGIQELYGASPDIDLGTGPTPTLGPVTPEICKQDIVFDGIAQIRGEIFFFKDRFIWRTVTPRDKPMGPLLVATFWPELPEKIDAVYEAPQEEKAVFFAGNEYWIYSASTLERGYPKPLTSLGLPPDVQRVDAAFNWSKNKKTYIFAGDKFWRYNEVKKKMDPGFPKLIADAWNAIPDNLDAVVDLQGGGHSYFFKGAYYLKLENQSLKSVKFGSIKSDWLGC

SMILES	IC50
COc1ccc(Oc2ccc(S(=O)(=O)C3CCCCCN(O)C3=O)cc2)cc1 (stereo unspecified)	> 1000 nM
COc1ccc(-c2ccc(S(=O)(=O)C3CCCCN(O)C3=O)cc2)cc1 (stereo unspecified)	> 1000 nM
O=c1c(O)cccn1CS(=O)(=O)c1ccc(Oc2ccc(OC(F)(F)F)cc2)cc1	12.6 nM
O=C1[C@H](CS(=O)(=O)c2ccc(Oc3ccccc3)cc2)NCCCN1O	36.8 nM
O=C1C(S(=O)(=O)c2ccc(Oc3ccc(OC(F)(F)F)cc3)cc2)CCCCN1O (stereo unspecified)	59.4 nM

More lines, now with the values ahead:

IC50	SMILES
72 nM	COc1ccc(Oc2ccc(S(=O)(=O)Cn3cccc(O)c3=O)s2)cc1
10.6 nM	O=c1c(O)cccn1CS(=O)(=O)c1ccc(Oc2ccc(Cl)cc2)cc1
> 1000 nM	COc1ccc(-c2ccc(S(=O)(=O)Cn3cccc(O)c3=O)cc2)cc1

Each molecule was assayed against Stromelysin-1 (Homo sapiens, UniProt P08254) (assay: Inhibition of MMP3).
Chain of Stromelysin-1 (P08254 whole entry): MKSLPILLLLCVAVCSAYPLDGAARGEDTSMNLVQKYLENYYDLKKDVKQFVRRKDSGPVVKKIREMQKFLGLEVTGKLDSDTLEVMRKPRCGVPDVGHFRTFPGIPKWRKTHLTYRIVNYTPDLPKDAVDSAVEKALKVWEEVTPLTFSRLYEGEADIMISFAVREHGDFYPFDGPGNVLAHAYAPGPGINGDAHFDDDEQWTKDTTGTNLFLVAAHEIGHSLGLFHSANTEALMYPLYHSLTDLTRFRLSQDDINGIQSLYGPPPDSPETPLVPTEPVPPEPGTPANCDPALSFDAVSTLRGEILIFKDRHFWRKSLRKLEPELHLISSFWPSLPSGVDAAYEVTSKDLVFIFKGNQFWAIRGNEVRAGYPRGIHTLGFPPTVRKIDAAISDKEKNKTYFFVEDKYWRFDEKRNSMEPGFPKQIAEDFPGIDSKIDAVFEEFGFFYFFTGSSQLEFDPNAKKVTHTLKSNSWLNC

SMILES	IC50
COc1ccc(Oc2ccc(S(=O)(=O)Cc3cccn(O)c3=O)cc2)cc1	308 nM
O=c1c(O)cccn1CS(=O)(=O)c1ccc(Oc2ccc(OC(F)(F)F)cc2)cc1	203 nM
O=C1[C@H](CS(=O)(=O)c2ccc(Oc3ccccc3)cc2)NCCCN1O	964 nM
